Experimental data from ChEMBL document CHEMBL1134042, “[Lys3]Didemnins as potential affinity ligands” (Bioorg Med Chem Lett, 2001).

Key:
[1] = Cytotoxicity in NCI-60 human tumor cells; type: functional; settings: read-out: LC50 (the source's name)
[2] = Total growth inhibition of NCI-60 human tumor cells by the compound was evaluated; type: functional
[3] = Cell free protein biosynthesis inhibition activity was determined; type: functional, Homo sapiens
[4] = Antiproliferative activity as 50% growth inhibition of NCI-60 human tumor cells; type: functional

SMILES: CC[C@H](C)[C@H]1NC(=O)[C@@H](NC(=O)[C@@H](CC(C)C)N(C)C(=O)[C@@H]2CCCN2C(=O)C(C)O)[C@@H](C)OC(=O)[C@H](Cc2ccc(OC)cc2)N(C)C(=O)[C@@H]2CCCN2C(=O)[C@H](CCCCN)NC(=O)[C@@H](C)C(=O)[C@H](C(C)C)OC(=O)C[C@@H]1O (some centres undefined)
- CC50 [1]: 25 µM
- TGI [2]: 22 µM
- IC50 [3]: 154 µM
- GI50 [4]: 6.4 µM
